Experimental data published in patent publication US20110015067A1, “Herbicidal Compositions Comprising Pyroxasulfone” (BASF SE, priority 2008, published 2011).
Read-outs that look alike come from different tables or passages of the source.

Key:
Format in all cases: in vivo
[1] = tested on: ABUTH (Abutilon theophrasti); experiment: post-emergence greenhouse test; conditions: use rate 6.25 g ai/ha, read-out: observed % activity
In short: (§1)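 Plants grown to 3–20 cm, then sprayed post-emergence with herbicides, solo or mixed, with or without safener, in water as carrier. Damage scored visually 0–100% versus untreated controls at 8 and/or 20 days after treatment.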

ERBVI = experiment: post-emergence greenhouse test; conditions: use rate 12.5 g ai/ha, read-out: observed % activity
In short: as §1

[2] = tested on: LOLMU (Lolium multiflorum); experiment: post-emergence greenhouse test; conditions: 50 g ai/ha
In short: as §1

[3] = tested on: AMBEL (Ambrosia artemisifolia); experiment: post-emergence greenhouse test; conditions: for observed activity in % destruction: 25 g ai/ha; for inhibition at 50 g/ha: Ambrosia, use rate 50 g ai/ha, read-out: observed % activity
In short: as §1

SETFA (Setaria faberii) = experiment: post-emergence greenhouse test; conditions: Setaria faberi, use rate 25 g ai/ha, read-out: observed % activity
In short: as §1

[4] = tested on: BRAPL (Brachiaria plantaginea); experiment: post-emergence greenhouse test; conditions: Urochloa plantaginea, read-out: observed % activity; for inhibition at 6.25 g/ha: use rate 6.25 g ai/ha; for inhibition at 12.5 g/ha: use rate 12.5 g ai/ha
In short: as §1

[5] = tested on: MERAN (Mercurialis annua); experiment: post-emergence greenhouse test; conditions: for observed activity in % destruction: 50 g ai/ha; for inhibition at 50 g/ha: Mercurialis annua, use rate 50 g ai/ha, read-out: observed % activity
In short: as §1

[6] = tested on: ALOMY (Alopecurus myosuroides); experiment: post-emergence greenhouse test; conditions: for observed activity in % destruction: 50 g ai/ha; for inhibition at 6.25 g/ha / inhibition at 25 g/ha / inhibition at 50 g/ha: Alopecurus myosuroides, read-out: observed % activity; for inhibition at 6.25 g/ha: use rate 6.25 g ai/ha; for inhibition at 25 g/ha: use rate 25 g ai/ha; for inhibition at 50 g/ha: use rate 50 g ai/ha
In short: as §1

[7] = tested on: PANDI (Panicum dichotomiflorum); experiment: post-emergence greenhouse test; conditions: use rate 25 g ai/ha, read-out: observed % activity
In short: as §1

SETVI (Setaria viridis) = experiment: post-emergence greenhouse test; conditions: use rate 6.25 g ai/ha, read-out: observed % activity
In short: as §1

[8] = tested on: COMBE (Commelina benghalensis); experiment: post-emergence greenhouse test; conditions: read-out: observed % activity; for inhibition at 6.25 g/ha: Table 18, use rate 6.25 g ai/ha; for inhibition at 12.5 g/ha: Table 20, use rate 12.5 g ai/ha
In short: as §1

[9] = tested on: ECHCG (Echinochloa crus-galli); experiment: post-emergence greenhouse test; conditions: use rate 6.25 g ai/ha, read-out: observed % activity
In short: as §1

[10] = tested on: ALOMY (Alopecurus myosuroides); experiment: pre-emergence greenhouse test; conditions: for observed activity in % destruction: pre-emergence
In short: (§2)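 Compounds suspended or emulsified in water were sprayed through fine nozzles directly after sowing, then pots were gently irrigated and kept under transparent hoods until rooting. Herbicidal effect of solo compounds and mixtures was rated 8 and/or 20 days after treatment on a 0–100% damage scale versus untreated controls.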

[11] = tested on: PANDI (Panicum dichotomiflorum); experiment: pre-emergence greenhouse test; conditions: for observed activity in % destruction: pre-emergence
In short: as §2

[12] = tested on: AMARE (Amaranthus retroflexus); experiment: pre-emergence greenhouse test; conditions: for inhibition at 12.5 g/ha: Amaranthus retroflexus, use rate 12.5 g ai/ha, read-out: observed % activity; for inhibition at 12.5 g/ha / observed activity in % destruction: pre-emergence
In short: (§3)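 Pre-emergence spray right after sowing; actives in water, herbicide A/safener as 10% w/w SC, herbicide B/safener as commercial formulations. Hooded until rooted, 20-day test. Damage scored 0 (none) to 100% (complete kill) vs untreated, at 8 and/or 20 DAT.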

[13] = tested on: COMBE (Commelina benghalensis); experiment: pre-emergence greenhouse test; conditions: for inhibition at 12.5 g/ha: Commelina benghalensis, use rate 12.5 g ai/ha, read-out: observed % activity; for inhibition at 12.5 g/ha / observed activity in % destruction: pre-emergence
In short: as §3

[14] = PANDI pre-emergence 6.25 g ai/ha
[15] = COMBE pre-emergence 6.25 g ai/ha
[16] = COMBE pre-emergence 12.5 g ai/ha

Cn1nc(C(F)(F)F)c(CS(=O)(=O)C2=NOC(C)(C)C2)c1OC(F)F [pyroxasulfone, 3-[5-(difluoromethoxy)-1-methyl-3-(trifluoromethyl)pyrazol-4-ylmethylsulfonyl]-4,5-dihydro-5,5-dimethyl-1,2-oxazole]
55%: inhibition at 25 g/ha (SETFA (Setaria faberii); 192 h, 8 DAT) | inhibition at 25 g/ha ([6]; 480 h, 20 DAT)
20%: inhibition at 6.25 g/ha ([4]; 192 h, 8 DAT) | inhibition at 6.25 g/ha ([6]; 192 h, 8 DAT) | inhibition at 6.25 g/ha ([8]; 192 h, 8 DAT) | inhibition at 6.25 g/ha ([8]; 480 h, 20 DAT)
30%: inhibition at 12.5 g/ha ([4]; 192 h, 8 DAT) | observed activity in % destruction ([6]; 8 DAT) | inhibition at 25 g/ha ([6]; 192 h, 8 DAT) | inhibition at 50 g/ha ([6]; 192 h, 8 DAT) | inhibition at 6.25 g/ha ([6]; 480 h, 20 DAT) | inhibition at 12.5 g/ha ([8]; 192 h, 8 DAT) | inhibition at 6.25 g/ha ([9]; 192 h, 8 DAT)
90%: inhibition at 25 g/ha (SETFA (Setaria faberii); 480 h, 20 DAT) | observed % destruction 20 DAT ([10]; ALOMY pre-emergence 6.25 g ai/ha) | observed % destruction 20 DAT [11, 14] | observed % destruction 8 DAT ([11]; PANDI pre-emergence 25 g ai/ha) | observed % destruction 8 DAT ([11]; PANDI pre-emergence 50 g ai/ha) | observed activity in % destruction ([11]; 6.25 g ai/ha, 20 DAT) | observed activity in % destruction ([11]; 50 g ai/ha, 8 DAT) | observed activity in % destruction ([12]; 50 g ai/ha, 8 DAT)
70%: inhibition at 50 g/ha ([3]; 480 h, 20 DAT) | observed activity in % destruction ([10]; 12.5 g ai/ha, 8 DAT) | observed % destruction 20 DAT [13, 15] | observed activity in % destruction ([13]; 6.25 g ai/ha, 20 DAT)
40%: inhibition at 6.25 g/ha ([1]; 192 h, 8 DAT) | inhibition at 6.25 g/ha ([1]; 480 h, 20 DAT) | inhibition at 12.5 g/ha (ERBVI; 192 h, 8 DAT) | observed activity in % destruction ([3]; 20 DAT) | inhibition at 6.25 g/ha ([4]; 480 h, 20 DAT) | inhibition at 6.25 g/ha (SETVI (Setaria viridis); 192 h, 8 DAT) | inhibition at 12.5 g/ha ([8]; 480 h, 20 DAT) | observed % destruction 8 DAT [13, 15] | observed activity in % destruction ([13]; 6.25 g ai/ha, 8 DAT)
75%: inhibition at 12.5 g/ha (ERBVI; 480 h, 20 DAT) | observed activity in % destruction ([6]; 20 DAT) | inhibition at 50 g/ha ([6]; 480 h, 20 DAT) | inhibition at 6.25 g/ha (SETVI (Setaria viridis); 480 h, 20 DAT) | observed % destruction 8 DAT [13, 16] | inhibition at 12.5 g/ha ([13]; 192 h, 8 DAT) | observed activity in % destruction ([13]; 12.5 g ai/ha, 8 DAT)
60%: observed activity in % destruction ([2]; 8 DAT) | inhibition at 25 g/ha ([7]; 192 h, 8 DAT)
50%: observed activity in % destruction ([3]; 8 DAT) | inhibition at 50 g/ha ([3]; 192 h, 8 DAT)
45%: inhibition at 12.5 g/ha ([4]; 480 h, 20 DAT) | observed activity in % destruction ([5]; 8 DAT) | inhibition at 50 g/ha ([5]; 192 h, 8 DAT)
85%: observed activity in % destruction ([5]; 20 DAT) | inhibition at 50 g/ha ([5]; 480 h, 20 DAT) | inhibition at 25 g/ha ([7]; 480 h, 20 DAT) | observed % destruction 8 DAT ([10]; ALOMY pre-emergence 50 g ai/ha) | observed activity in % destruction ([10]; 50 g ai/ha, 8 DAT)
98%: observed % destruction 20 DAT ([10]; ALOMY pre-emergence 12.5 g ai/ha) | observed % destruction 20 DAT ([10]; ALOMY pre-emergence 25 g ai/ha) | observed % destruction 20 DAT ([10]; ALOMY pre-emergence 50 g ai/ha) | observed activity in % destruction ([10]; 12.5 g ai/ha, 20 DAT) | observed activity in % destruction ([10]; 25 g ai/ha, 20 DAT) | observed activity in % destruction ([10]; 50 g ai/ha, 20 DAT) | observed % destruction 20 DAT [13, 16] | inhibition at 12.5 g/ha ([13]; 480 h, 20 DAT) | observed activity in % destruction ([13]; 12.5 g ai/ha, 20 DAT)
80%: observed activity in % destruction ([2]; 20 DAT) | inhibition at 6.25 g/ha ([9]; 480 h, 20 DAT) | observed activity in % destruction ([10]; 25 g ai/ha, 8 DAT) | observed activity in % destruction ([11]; 12.5 g ai/ha, 8 DAT) | observed % destruction 8 DAT ([12]; AMARE pre-emergence 25 g ai/ha) | inhibition at 12.5 g/ha ([12]; 192 h, 8 DAT) | observed activity in % destruction ([12]; 12.5 g ai/ha, 8 DAT) | observed activity in % destruction ([12]; 25 g ai/ha, 8 DAT)
100%: observed % destruction 20 DAT ([11]; PANDI pre-emergence 25 g ai/ha) | observed % destruction 20 DAT ([11]; PANDI pre-emergence 50 g ai/ha) | observed activity in % destruction ([11]; 12.5 g ai/ha, 20 DAT) | observed activity in % destruction ([11]; 50 g ai/ha, 20 DAT) | observed % destruction 20 DAT ([12]; AMARE pre-emergence 25 g ai/ha) | observed activity in % destruction ([12]; 25 g ai/ha, 20 DAT) | observed activity in % destruction ([12]; 50 g ai/ha, 20 DAT) | observed % destruction 20 DAT ([13]; COMBE pre-emergence 25 g ai/ha) | observed activity in % destruction ([13]; 25 g ai/ha, 20 DAT)
95%: observed % destruction 20 DAT ([12]; AMARE pre-emergence 12.5 g ai/ha) | inhibition at 12.5 g/ha ([12]; 480 h, 20 DAT) | observed activity in % destruction ([12]; 12.5 g ai/ha, 20 DAT) | observed % destruction 8 DAT ([13]; COMBE pre-emergence 25 g ai/ha) | observed activity in % destruction ([13]; 25 g ai/ha, 8 DAT)
65%: observed % destruction 8 DAT [11, 14] | observed activity in % destruction ([11]; 6.25 g ai/ha, 8 DAT)
